Activity calls are given as the source filed them. The calls are words filed in the database; no cut-off is given here.
Assays:
Format in all cases: functional
[1] = tested on: Rhizopus arrhizus; assay: Antifungal activity against Rhizopus oryzae at 100 ug/ml after 48 hr by paper disk diffusion method; settings: for zone of inhibition at 100 µg/mL: read-out: IZ
[2] = tested on: Aspergillus flavus; assay: Antifungal activity against Aspergillus flavus at 50 ug/ml after 48 hr by paper disk diffusion method; settings: read-out: IZ
[3] = tested on: Paracoccus denitrificans; assay: Antibacterial activity against Paracoccus denitrificans at 50 ug/ml after 24 hr by agar cup-plate method; settings: read-out: DIZ
[4] = tested on: Aspergillus flavus; assay: Antifungal activity against Aspergillus flavus at 100 ug/ml after 48 hr by paper disk diffusion method; settings: read-out: IZ
[5] = tested on: Aspergillus niger; assay: Antifungal activity against Aspergillus niger at 50 ug/ml after 48 hr by paper disk diffusion method; settings: read-out: IZ
[6] = tested on: Aspergillus niger; assay: Antifungal activity against Aspergillus niger at 100 ug/ml after 48 hr by paper disk diffusion method; settings: read-out: IZ
[7] = tested on: Bacillus subtilis; assay: Antibacterial activity against Bacillus subtilis at 50 ug/ml after 24 hr by agar cup-plate method; settings: read-out: DIZ
[8] = tested on: Rhizopus arrhizus; assay: Antifungal activity against Rhizopus oryzae at 50 ug/ml after 48 hr by paper disk diffusion method; settings: for zone of inhibition at 50 µg/mL: read-out: IZ
[9] = tested on: Pseudomonas syringae; assay: Antibacterial activity against Pseudomonas syringae at 50 ug/ml after 24 hr by agar cup-plate method; settings: read-out: DIZ
[10] = tested on: Klebsiella aerogenes; assay: Antibacterial activity against Enterobacter aerogenesat 50 ug/ml after 24 hr by agar cup-plate method
[11] = tested on: Klebsiella aerogenes; assay: Antibacterial activity against Enterobacter aerogenes at 4 ug/ml after 24 hr by agar cup-plate method; settings: read-out: DIZ
[12] = tested on: Bacillus subtilis; assay: Antibacterial activity against Bacillus subtilis at 4 ug/ml after 24 hr by agar cup-plate method; settings: read-out: DIZ
[13] = tested on: Pseudomonas syringae; assay: Antibacterial activity against Pseudomonas syringae at 4 ug/ml after 24 hr by agar cup-plate method; settings: read-out: DIZ
[14] = tested on: Paracoccus denitrificans; assay: Antibacterial activity against Paracoccus denitrificans at 4 ug/ml after 24 hr by agar cup-plate method; settings: read-out: DIZ

## O=C1C(Cl)=C(Nc2ccc(F)cc2)C(=O)C(Cl)=C1Nc1ccc(F)cc1
[1]
  zone of inhibition at 100 µg/mL: 13 mm
[2]
  zone of inhibition at 50 µg/mL: 13 mm
[3]
  zone of inhibition at 50 µg/mL: 13 mm
[4]
  zone of inhibition at 100 µg/mL: 13 mm
[5]
  zone of inhibition at 50 µg/mL: 13 mm
[6]
  zone of inhibition at 100 µg/mL: > 21 mm
[7]
  zone of inhibition at 50 µg/mL: > 21 mm
[8]
  zone of inhibition at 50 µg/mL: 10 mm
[9]
  zone of inhibition at 50 µg/mL: 13 mm
[10]
  diameter of the inhibition zone (DIZ): 10 mm

## Cc1ccc(NC2=C(Cl)C(=O)C(Nc3ccc(C)cc3)=C(Cl)C2=O)cc1
[1]
  inhibition zone (IZ): inactive
[2]
  zone of inhibition at 50 µg/mL: 3 mm
[3]
  zone of inhibition at 50 µg/mL: 10 mm
[4]
  zone of inhibition at 100 µg/mL: 10 mm
[5]
  zone of inhibition at 50 µg/mL: 3 mm
[6]
  zone of inhibition at 100 µg/mL: 10 mm
[7]
  zone of inhibition at 50 µg/mL: 3 mm
[8]
  inhibition zone (IZ): inactive
[9]
  zone of inhibition at 50 µg/mL: 3 mm
[10]
  diameter of the inhibition zone (DIZ): inactive

## O=C1C(Cl)=C(Nc2ccc(Cl)cc2)C(=O)C(Cl)=C1Nc1ccc(Cl)cc1
[1]
  zone of inhibition at 100 µg/mL: 10 mm
[2]
  zone of inhibition at 50 µg/mL: 10 mm
[3]
  zone of inhibition at 50 µg/mL: 10 mm
[4]
  zone of inhibition at 100 µg/mL: 13 mm
[5]
  zone of inhibition at 50 µg/mL: 10 mm
[6]
  zone of inhibition at 100 µg/mL: 10 mm
[7]
  zone of inhibition at 50 µg/mL: 10 mm
[8]
  zone of inhibition at 50 µg/mL: 3 mm
[9]
  zone of inhibition at 50 µg/mL: 10 mm
[10]
  diameter of the inhibition zone (DIZ): 13 mm

## CCn1cc(C(=O)O)c(=O)c2cc(F)c(N3CCNCC3)cc21 [NORFLOXACIN]
[11]
  zone of inhibition at 4 µg/mL: > 21 mm
[12]
  zone of inhibition at 4 µg/mL: > 21 mm
[13]
  zone of inhibition at 4 µg/mL: > 21 mm
[14]
  zone of inhibition at 4 µg/mL: 13 mm

## COc1ccccc1NC1=C(Cl)C(=O)C(Nc2ccccc2OC)=C(Cl)C1=O
[1]
  zone of inhibition at 100 µg/mL: 10 mm
[2]
  zone of inhibition at 50 µg/mL: 3 mm
[3]
  zone of inhibition at 50 µg/mL: 13 mm
[4]
  zone of inhibition at 100 µg/mL: 10 mm
[5]
  zone of inhibition at 50 µg/mL: 10 mm
[6]
  zone of inhibition at 100 µg/mL: 13 mm
[7]
  zone of inhibition at 50 µg/mL: 3 mm
[8]
  zone of inhibition at 50 µg/mL: 3 mm
[9]
  zone of inhibition at 50 µg/mL: 3 mm
[10]
  diameter of the inhibition zone (DIZ): 10 mm

## Cc1ccccc1NC1=C(Cl)C(=O)C(Nc2ccccc2C)=C(Cl)C1=O
[1]
  inhibition zone (IZ): inactive
[2]
  zone of inhibition at 50 µg/mL: 3 mm
[3]
  zone of inhibition at 50 µg/mL: 3 mm
[4]
  zone of inhibition at 100 µg/mL: 3 mm
[5]
  zone of inhibition at 50 µg/mL: 3 mm
[6]
  zone of inhibition at 100 µg/mL: 3 mm
[7]
  zone of inhibition at 50 µg/mL: 3 mm
[8]
  inhibition zone (IZ): inactive
[9]
  zone of inhibition at 50 µg/mL: 3 mm
[10]
  diameter of the inhibition zone (DIZ): 3 mm

## O=C1C(Cl)=C(Nc2ccccc2)C(=O)C(Cl)=C1Nc1ccccc1
[1]
  zone of inhibition at 100 µg/mL: 3 mm
[2]
  zone of inhibition at 50 µg/mL: 3 mm
[3]
  zone of inhibition at 50 µg/mL: 10 mm
[4]
  zone of inhibition at 100 µg/mL: 3 mm
[5]
  zone of inhibition at 50 µg/mL: 3 mm
[6]
  zone of inhibition at 100 µg/mL: 10 mm
[7]
  zone of inhibition at 50 µg/mL: 3 mm
[8]
  inhibition zone (IZ): inactive
[9]
  zone of inhibition at 50 µg/mL: 10 mm
[10]
  diameter of the inhibition zone (DIZ): inactive

## O=C1C(Cl)=C(Nc2ccccc2Cl)C(=O)C(Cl)=C1Nc1ccccc1Cl
[1]
  zone of inhibition at 100 µg/mL: 13 mm
[2]
  zone of inhibition at 50 µg/mL: 10 mm
[3]
  zone of inhibition at 50 µg/mL: 13 mm
[4]
  zone of inhibition at 100 µg/mL: 13 mm
[5]
  zone of inhibition at 50 µg/mL: 10 mm
[6]
  zone of inhibition at 100 µg/mL: 13 mm
[7]
  zone of inhibition at 50 µg/mL: 13 mm
[8]
  zone of inhibition at 50 µg/mL: 10 mm
[9]
  zone of inhibition at 50 µg/mL: 10 mm
[10]
  diameter of the inhibition zone (DIZ): 10 mm

## COc1ccc(NC2=C(Cl)C(=O)C(Nc3ccc(OC)cc3)=C(Cl)C2=O)cc1
[1]
  zone of inhibition at 100 µg/mL: 3 mm
[2]
  zone of inhibition at 50 µg/mL: 10 mm
[3]
  zone of inhibition at 50 µg/mL: 13 mm
[4]
  zone of inhibition at 100 µg/mL: 13 mm
[5]
  zone of inhibition at 50 µg/mL: 3 mm
[6]
  zone of inhibition at 100 µg/mL: 10 mm
[7]
  zone of inhibition at 50 µg/mL: 10 mm
[8]
  inhibition zone (IZ): inactive
[9]
  zone of inhibition at 50 µg/mL: 10 mm
[10]
  diameter of the inhibition zone (DIZ): 3 mm

## O=C1C(Cl)=C(Nc2ccccc2F)C(=O)C(Cl)=C1Nc1ccccc1F
[1]
  zone of inhibition at 100 µg/mL: 13 mm
[2]
  zone of inhibition at 50 µg/mL: 10 mm
[3]
  zone of inhibition at 50 µg/mL: > 21 mm
[4]
  zone of inhibition at 100 µg/mL: 13 mm
[5]
  zone of inhibition at 50 µg/mL: 13 mm
[6]
  zone of inhibition at 100 µg/mL: > 21 mm
[7]
  zone of inhibition at 50 µg/mL: > 21 mm
[8]
  zone of inhibition at 50 µg/mL: 10 mm
[9]
  zone of inhibition at 50 µg/mL: 13 mm
[10]
  diameter of the inhibition zone (DIZ): 13 mm

## O=C1C(Cl)=C(Nc2ccc(Br)cc2)C(=O)C(Cl)=C1Nc1ccc(Br)cc1
[1]
  zone of inhibition at 100 µg/mL: 13 mm
[2]
  zone of inhibition at 50 µg/mL: 10 mm
[3]
  zone of inhibition at 50 µg/mL: 13 mm
[4]
  zone of inhibition at 100 µg/mL: 13 mm
[5]
  zone of inhibition at 50 µg/mL: 10 mm
[6]
  zone of inhibition at 100 µg/mL: > 21 mm
[7]
  zone of inhibition at 50 µg/mL: 13 mm
[8]
  zone of inhibition at 50 µg/mL: 3 mm
[9]
  zone of inhibition at 50 µg/mL: 10 mm
[10]
  diameter of the inhibition zone (DIZ): 10 mm

## COC1=CC(=O)C[C@@H](C)[C@]12Oc1c(Cl)c(OC)cc(OC)c1C2=O [GRISEOFULVIN]
[1]
  zone of inhibition at 100 µg/mL: > 21 mm
[2]
  zone of inhibition at 50 µg/mL: > 21 mm
[4]
  zone of inhibition at 100 µg/mL: > 21 mm
[5]
  zone of inhibition at 50 µg/mL: > 21 mm
[6]
  zone of inhibition at 100 µg/mL: > 21 mm
[8]
  zone of inhibition at 50 µg/mL: > 21 mm

Source: ChEMBL document CHEMBL3044582, “Nontraditional approaches to the synthesis of some biologically active substituted p-benzoquinones” (2008)
